Test results published in ChEMBL document CHEMBL1833838, “Pancreatic anticancer activity of a novel geranylgeranylated coumarin derivative” (2011).
Activity calls are given as the source filed them. The calls are words filed in the database; no cut-off is given here.

Key:
PANC-1 [1] = test: Cytotoxicity against human PANC1 cells in nutrient-deprived condition at 0.01 ug/mL after 24 hrs by WST-8 assay; type: functional, cell-based
PANC-1 [2] = test: Cytotoxicity against human PANC1 cells in nutrient-deprived condition assessed as cell death at 100 uM after 24 hrs by WST-8 assay; type: functional
PANC-1 [3] = test: Cytotoxicity against human PANC1 cells in nutrient-deprived condition assessed as cell death at 6.25 uM after 24 hrs by WST-8 assay; type: functional
PANC-1 [4] = test: Induction of apoptosis in human PANC1 cells in nutrient-deprived condition assessed as morphological changes at 3.125 to 12.5 uM up to 24 hrs by microscopy; type: functional, cell-based
PANC-1 [5] = test: Cytotoxicity against human PANC1 cells in nutrient-deprived condition assessed as cell death at 200 uM after 24 hrs by WST-8 assay; type: functional

CC(C)(OC(=O)/C=C/c1ccc(O)cc1)[C@@H]1Cc2c(ccc3ccc(=O)oc23)O1
Activity (PANC-1 [1]): Active

CC(C)=CCC/C(C)=C/CC/C(C)=C/CC/C(C)=C/COc1ccc2ccc(=O)oc2c1
Activity (PANC-1 [2]): Active | Activity (PANC-1 [3]): 100% | Activity (PANC-1 [4]): Active

CC(C)=CCOc1ccc2ccc(=O)oc2c1 [7-PRENYLOXYCOUMARIN]
Activity (PANC-1 [2]): 100%

CC(C)=CCC/C(C)=C/COc1ccc2ccc(=O)oc2c1
Activity (PANC-1 [2]): Active

O=c1ccc2ccc(OC3CCCC3)cc2o1
Activity (PANC-1 [5]): 100%

CC(C)=CCC/C(C)=C/CC/C(C)=C/COc1cc2ccccc2oc1=O
Activity (PANC-1 [2]): Active
